The results in this text go back to patent US10245264B2, “Substituted imidazo[1,2-a]pyrazines as soluble guanylate cyclase activators” (Merck Sharp & Dohme Corp., priority 2015, dated 2019).

The target of the test is T1, sGC α1/β1 heterodimer stably expressed in CHO-K1 cells (CHO-K1/sGC) (Homo sapiens, UniProt Q02108+Q02153).
T1 construct: expressed in transfected cells
T1 sequence (Q02108 1-690): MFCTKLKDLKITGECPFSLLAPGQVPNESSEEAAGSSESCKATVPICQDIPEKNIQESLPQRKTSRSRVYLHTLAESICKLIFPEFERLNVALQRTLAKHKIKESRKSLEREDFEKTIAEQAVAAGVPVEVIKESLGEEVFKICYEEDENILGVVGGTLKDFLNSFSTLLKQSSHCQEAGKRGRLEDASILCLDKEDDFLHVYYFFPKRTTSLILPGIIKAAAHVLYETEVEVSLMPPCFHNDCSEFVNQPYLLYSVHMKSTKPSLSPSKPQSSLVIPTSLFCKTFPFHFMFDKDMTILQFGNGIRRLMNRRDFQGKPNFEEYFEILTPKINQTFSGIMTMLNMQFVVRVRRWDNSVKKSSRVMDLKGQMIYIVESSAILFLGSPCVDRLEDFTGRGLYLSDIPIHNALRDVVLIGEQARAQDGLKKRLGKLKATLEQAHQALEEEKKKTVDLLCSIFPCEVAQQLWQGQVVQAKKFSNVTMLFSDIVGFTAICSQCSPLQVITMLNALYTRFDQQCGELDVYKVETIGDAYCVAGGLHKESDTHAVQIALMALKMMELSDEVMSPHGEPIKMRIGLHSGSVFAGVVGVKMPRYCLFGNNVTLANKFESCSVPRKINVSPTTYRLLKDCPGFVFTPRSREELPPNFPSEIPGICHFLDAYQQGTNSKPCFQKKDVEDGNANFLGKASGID
T1 sequence (Q02153 1-619): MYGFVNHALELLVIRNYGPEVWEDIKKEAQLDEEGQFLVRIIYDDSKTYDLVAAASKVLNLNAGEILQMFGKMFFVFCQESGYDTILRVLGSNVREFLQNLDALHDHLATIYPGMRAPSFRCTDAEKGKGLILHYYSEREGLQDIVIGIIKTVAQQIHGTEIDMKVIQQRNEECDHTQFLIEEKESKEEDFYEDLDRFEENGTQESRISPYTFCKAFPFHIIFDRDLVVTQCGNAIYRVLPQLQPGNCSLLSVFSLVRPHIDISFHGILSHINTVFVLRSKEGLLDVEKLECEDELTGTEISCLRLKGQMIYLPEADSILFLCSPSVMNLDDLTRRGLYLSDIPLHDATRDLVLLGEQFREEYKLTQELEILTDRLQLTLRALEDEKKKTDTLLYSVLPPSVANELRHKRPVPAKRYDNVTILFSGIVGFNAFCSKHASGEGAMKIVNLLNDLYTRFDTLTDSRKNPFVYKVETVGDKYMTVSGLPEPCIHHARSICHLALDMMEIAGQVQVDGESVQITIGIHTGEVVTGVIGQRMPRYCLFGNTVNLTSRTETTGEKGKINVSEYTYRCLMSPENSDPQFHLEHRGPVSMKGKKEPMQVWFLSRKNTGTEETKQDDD
Briefly: Cell-based sGC functional assay (CASA assay), cGMP generation by HTRF. Conditions: for EC50: CHO-K1/sGC cells, 1 hr at 37° C., 4P fit, presence or absence of DETA-NO not given, read-out: IP (nM) (inflection point); for % Act. (percent activation relative to Compound A): maximum cGMP production of Compound A set to 100% activation; for Emax: CHO-K1, maximum cGMP production of Compound A set to 100% activation, read-out: % Act. (percent activation relative to Compound A). The source says:
Biological Assay 1: Cell-Based sGC Functional Assay (CASA Assay) Rationale
sGC is a heme-containing enzyme that converts GTP to secondary messenger cGMP. Increases in cGMP levels affect several physiological processes including vasorelaxation through multiple downstream pathways. […] Heme-dependent activators (HDAs) preferentially activate sGC containing a ferrous heme group. To determine the effect of sGC activators on enzyme activity, the CASA assay was developed to monitor the generation of cGMP in a cell line that stably expresses the heterodimeric sGC protein.
A CHO-K1 cell line stably expressing the sGC α1/β1 heterodimer was generated using a standard transfection protocol. CHO-K1 cells were transfected with plasmids pIREShyghsGCα1 and pIRESneo-hsGCβ1 simultaneously using FUGENE reagent. Clones that stably express both subunits were selected with hygromycin and neomycin for ˜2 weeks. Clone #7 was chosen for the assay and was designated CHO-K1/sGC. CHO-K1/sGC cells were maintained in F-K12 medium containing 10% heat-inactivated Fetal Bovine Serum (FBS), 100 μg/mL penicillin/streptomycin, 0.5 mg/mL hygromycin and 0.25 mg/mL G418. The cells were then cryopreserved in LN2. On the day of the assay, cells were thawed and resuspended in EBSS Assay Buffer (Sigma, E3024) supplemented with 5 mM MgCl2, 10 mM HEPES (4-(2-hydroxyethyl)piperazine-1-ethanesulfonic acid) and 0.05% BSA (bovine serum albumin) (EAB) and cell density was then adjusted to 4×10^5/mL with EAB. IBMX (3-isobutyl-1-methylxanthin, 0.5 mM) was added to inhibit degradation of cGMP. Compounds were diluted from DMSO stock solutions and added to the assay at a final DMSO concentration of 2.5%. Cells were incubated with compounds in the presence and absence of 1 μM of Diethylenetriamine/nitric oxide adduct (DETA-NO; Sigma, 17018) for 1 hr at 37° C. At the end of the incubation period, the reaction was terminated and the cells were lysed with the detection reagents from Cisbio Kits. The level of intracellular cGMP was determined using an HTRF-based assay kit (CisBio, 62GM2PEC), which detects the displacement of a fluorescence labeled cGMP from its specific antibody. The cGMP produced by test compounds was directly compared to the maximum cGMP production (this value was set to equal 100% activation.) of the published sGC-HDA Compound A:
[drawing 101] (Example 1 in WO 2010/065275, published Jun. 10, 2010). The test compounds' activities were then expressed as a percentage of Compound A, the standard in every experiment. This percent activation was calculated either in the presence or absence of DETA-NO which was then plotted. IP and maximum fold induction was derived using ADA analysis software for 4P fit.
The compounds in the Examples of the instant invention had inflection points (IP) less than or equal to 10 μM and many had IPs less than or equal to about 1 μM.
(In general: Time-resolved FRET reads energy transfer from a long-lived donor to a nearby acceptor.)

Regarding `CC1(c2ccc(Cl)cc2)C(=O)Nc2nc(-c3cn4ccnc4c(OCC4CCCCO4)n3)nc(N)c21` (single isomer, unassigned; slow eluting) [Example 68B, 4-amino-5-(4-chlorophenyl)-5-methyl-2-[8-(tetrahydro-2H-pyran-2-ylmethoxy)imidazo[1,2-a]pyrazin-6-yl]-5,7-dihydro-6H-pyrrolo [2,3-d] pyrimidin-6-one (slow eluting)], the EC50 turned out to be 633 nM and the “% Act. (percent activation relative to Compound A)” value is reported as 85%.
For `CC1(c2ccc(Cl)cc2)C(=O)Nc2nc(-c3cn4ccnc4c(NCC4CCCCO4)n3)nc(N)c21` (single isomer, unassigned; slow eluting) [Example 71B, 4-amino-5-(4-chlorophenyl)-5-methyl-2-{8-[(tetrahydro-2H-pyran-2-ylmethyl)amino]imidazo [1,2-a]pyrazin-6-yl}-5,7-dihydro-6H-pyrrolo[2,3-d] pyrimidin-6-one (slow eluting)] the same measures were 143 nM and 95%.
As for `CC1(c2ccc(Cl)cc2)C(=O)Nc2nc(-c3cn4ccnc4c(NCC4CCCOC4)n3)nc(N)c21` (single isomer, unassigned; slow eluting) [Example 72B, 4-amino-5-(4-chlorophenyl)-5-methyl-2-{8-[(tetrahydro-2H-pyran-3-ylmethyl)amino]imidazo [1,2-a]pyrazin-6-yl}-5,7-dihydro-6H-pyrrolo[2,3-d] pyrimidin-6-one (slow eluting)], the EC50 was found to be 412 nM and the “% Act. (percent activation relative to Compound A)” value was found to be 94%.
As for `CC1(c2ccccc2)C(=O)Nc2nc(-c3cn4ccnc4c(OCC(F)(F)C(F)(F)F)n3)nc(N)c21` (stereo not shown) [Example 3B, 4-amino-5-methyl-2-[8-(2,2,3,3,3-pentafluoropropoxy)imidazo[1,2-a]pyrazin-6-yl]-5-phenyl-5,7-dihydro-6H-pyrrolo [2,3-d]pyrimidin-6-one], the Emax stood at 97% and the EC50 was determined as 416 nM.
Consider `CC1(c2ccccc2)C(=O)Nc2nc(-c3cn4ccnc4c(Oc4ccccc4F)n3)nc(N)c21` (stereo not shown) [Example 5B, 4-amino-2-[8-(2-fluorophenoxy)imidazo[1,2-a]pyrazin-6-yl]-5-methyl-5-phenyl-5,7-dihydro-6H-pyrrolo[2,3-d] pyrimidin-6-one], for which the Emax is 107% and the EC50 was determined as 80 nM.
For `CC1(c2ccc(F)cc2)C(=O)Nc2nc(-c3cn4ccnc4c(Oc4c(F)ccc(F)c4F)n3)nc(N)c21` (stereo not shown) [Example 6A, 4-amino-5-(4-fluorophenyl)-5-methyl-2-[8-(2,3,6-trifluorophenoxy)imidazo[1,2-a]pyrazin-6-yl]-5,7-dihydro-6H-pyrrolo[2,3-d] pyrimidin-6-one] the same measures were 89% and 499 nM.
In the same order, the values of `CC1(c2ccccc2)C(=O)Nc2nc(-c3cn4ccnc4c(Oc4c(F)ccc(F)c4F)n3)nc(N)c21` (stereo not shown) [Example 7B, 4-amino-5-methyl-5-phenyl-2-[8-(2,3,6-trifluorophenoxy)imidazo[1,2-a]pyrazin-6-yl]-5,7-dihydro-6H-pyrrolo[2,3-d] pyrimidin-6-one] are 112% and 1020 nM.
`CC1(c2ccccc2)C(=O)Nc2nc(-c3cn4ccnc4c(Oc4cccc(F)c4)n3)nc(N)c21` (stereo not shown) [Example 8B, 4-amino-2-[8-(3-fluorophenoxy)imidazo[1,2-a]pyrazin-6-yl]-5-methyl-5-phenyl-5,7-dihydro-6H-pyrrolo[2,3-d] pyrimidin-6-one]: the Emax was found to be 110% and the EC50 was 22 nM.
In the same order, the values of `CC1(c2ccc(F)cc2)C(=O)Nc2nc(-c3cn4ccnc4c(Oc4ccccc4)n3)nc(N)c21` (stereo not shown) [Example 9A, 4-amino-5-(4-fluorophenyl)-5-methyl-2-(8-phenoxyimidazo [1,2-a]pyrazin-6-yl)-5,7-dihydro-6H-pyrrolo[2,3-d] pyrimidin-6-one] are 124% and 28 nM.
Regarding `CC1(c2ccccc2)C(=O)Nc2nc(-c3cn4ccnc4c(Oc4ccc(F)c(F)c4F)n3)nc(N)c21` (stereo not shown) [Example 11B, 4-amino-5-methyl-5-phenyl-2-[8-(2,3,4-trifluoro-phenoxy)imidazo [1,2-a]pyrazin-6-yl]-5,7-dihydro-6H-pyrrolo[2,3-d] pyrimidin-6-one], the Emax came out at 104% and the EC50 was 138 nM.
In the same order, the values of `CC1(c2ccccc2)C(=O)Nc2nc(-c3cn4ccnc4c(Oc4cc(F)cc(F)c4F)n3)nc(N)c21` (stereo not shown) [Example 12B, 4-amino-5-methyl-5-phenyl-2-[8-(2,3,5-trifluoro-phenoxy)imidazo [1,2-a]pyrazin-6-yl]-5,7-dihydro-6H-pyrrolo[2,3-d] pyrimidin-6-one] are 99% and 47 nM.
For `CC1(c2ccccc2)C(=O)Nc2nc(-c3cn4ccnc4c(Oc4cccc(F)c4F)n3)nc(N)c21` (stereo not shown) [Example 13B, 4-amino-2-[8-(2,3-difluoro-phenoxy)imidazo [1,2-a]pyrazin-6-yl]-5-methyl-5-phenyl-5,7-dihydro-6H-pyrrolo[2,3-d] pyrimidin-6-one] the same measures were 109% and 14 nM.
For `Nc1nc(-c2cn3ccnc3c(OCC(F)(F)C(F)(F)F)n2)nc2c1C(c1ccc(F)cc1)(C1CC1)C(=O)N2` (stereo not shown) [Example 14B, 4-amino-5-cyclopropyl-5-(4-fluorophenyl)-2-[8-(2,2,3,3,3-pentafluoropropoxy)imidazo[1,2-a]pyrazin-6-yl]-5,7-dihydro-6H-pyrrolo [2,3-d]pyrimidin-6-one] the same measures were 96% and 534 nM.
Regarding `CC1(c2ccc(F)cc2)C(=O)Nc2nc(-c3cn4ccnc4c(Oc4cccc(F)c4F)n3)nc(N)c21` (stereo not shown) [Example 15A, 4-amino-2-[8-(2,3-difluorophenoxy)imidazo[1,2-a]pyrazin-6-yl]-5-(4-fluorophenyl)-5-methyl-5,7-dihydro-6H-pyrrolo[2,3-d] pyrimidin-6-one], the Emax was determined as 104% and the EC50 is 23 nM.
